According to US10913742B2, “Oxadiazolones as transient receptor potential channel inhibitors” (Genentech, Inc., priority 2017, dated 2021):

Target: human TRPA1 (Homo sapiens (Human), UniProt O75762)
Assay: hTRPA1 CHO Ca2+ FLIPR assay (block of cinnamaldehyde induced calcium influx)
Assay type: cell-based
Details: CHO cells expressing TRPA1; 75 uM cinnamaldehyde; Hill coefficient fixed to 1.5; read-out: hTRPA1 (hTRPA1 CHO Ca2+ MAX EVO (IC50))
Experimental: CHO cells expressing TRPA1 were plated into 384-well plates, incubated overnight at 37° C., and loaded with BD calcium indicator dye for 1 hr at 37° C. followed by 15 minutes at room temperature. The assay buffer was Hank's Balanced Salt Solution (HBSS) containing 20 mM HEPES (pH readjusted to 7.4) along with 0.02% BSA.
Following dye load and plate cool down, compounds were added to the cells using FLIPR Tetra. Plates were then incubated with compounds for 20 minutes at room temperature prior to adding agonist.
The IC50 results were fit with a standard Hill function, keeping the Hill coefficient (n) fixed to 1.5. Fixing the Hill coefficient will generally reduce variability of the IC50 determination. The IC50 results were individually examined to make sure the MIN and MAX points were set correctly prior to validation of the results.

Sequence of human TRPA1 (O75762 whole entry): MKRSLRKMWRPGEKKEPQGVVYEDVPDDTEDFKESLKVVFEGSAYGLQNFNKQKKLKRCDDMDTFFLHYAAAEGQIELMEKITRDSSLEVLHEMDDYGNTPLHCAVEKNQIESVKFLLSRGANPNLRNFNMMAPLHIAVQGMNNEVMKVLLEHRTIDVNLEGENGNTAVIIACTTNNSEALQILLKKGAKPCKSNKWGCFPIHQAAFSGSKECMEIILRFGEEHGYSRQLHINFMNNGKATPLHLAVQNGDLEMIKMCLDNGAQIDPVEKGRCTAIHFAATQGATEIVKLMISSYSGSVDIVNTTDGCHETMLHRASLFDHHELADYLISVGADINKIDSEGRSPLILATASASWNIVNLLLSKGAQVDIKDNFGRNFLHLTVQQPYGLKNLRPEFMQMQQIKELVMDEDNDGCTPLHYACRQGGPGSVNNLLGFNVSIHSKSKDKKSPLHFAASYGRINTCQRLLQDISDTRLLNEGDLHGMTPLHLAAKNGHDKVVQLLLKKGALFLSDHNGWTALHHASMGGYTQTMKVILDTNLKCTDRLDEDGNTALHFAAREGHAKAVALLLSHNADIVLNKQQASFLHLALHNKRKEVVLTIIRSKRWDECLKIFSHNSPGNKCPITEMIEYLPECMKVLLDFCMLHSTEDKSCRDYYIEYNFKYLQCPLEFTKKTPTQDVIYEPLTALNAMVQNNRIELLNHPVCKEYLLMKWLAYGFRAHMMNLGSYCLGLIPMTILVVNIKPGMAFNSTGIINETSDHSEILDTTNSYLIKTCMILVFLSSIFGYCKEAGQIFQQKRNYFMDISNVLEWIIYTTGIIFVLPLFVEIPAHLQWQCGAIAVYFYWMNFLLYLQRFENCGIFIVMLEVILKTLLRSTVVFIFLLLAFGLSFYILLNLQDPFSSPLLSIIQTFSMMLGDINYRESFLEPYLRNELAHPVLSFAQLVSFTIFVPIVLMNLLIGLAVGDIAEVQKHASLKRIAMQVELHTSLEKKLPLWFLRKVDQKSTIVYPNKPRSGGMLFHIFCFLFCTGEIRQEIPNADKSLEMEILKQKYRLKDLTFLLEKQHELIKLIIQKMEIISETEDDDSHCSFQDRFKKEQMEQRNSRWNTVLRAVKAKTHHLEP

SMILES	IC50 [nM]
O=c1c2cccnc2ncn1Cc1nn([C@H]2C[C@](F)(c3ccc(Cl)cc3)C2)c(=O)o1 [compound 94, trans-3-[3-(4-chlorophenyl)-3-fluoro-cyclobutyl]-5-[(4-oxopyrido[2,3-d]pyrimidin-3-yl)methyl]-1,3,4-oxadiazol-2-one]	16.8
O=c1c2cccnc2ncn1Cc1nn([C@@H]2CC[C@@H](c3ccc(F)cc3)C2)c(=O)o1 (racemic) [compound 78, 5-[(4-oxopyrido[2,3-d]pyrimidin-3-yl)methyl]-3-[rac-(1R,3R)-3-(4-fluorophenyl)cyclopentyl]-1,3,4-oxadiazol-2-one]	40.6
O=c1c2cccc(=O)n2ccn1Cc1nn([C@H]2C[C@H](c3ccc(Cl)cc3)C2)c(=O)o1 [compound 65, trans-2-[[4-[3-(4-chlorophenyl)cyclobutyl]-5-oxo-1,3,4-oxadiazol-2-yl]methyl]pyrido[1,2-a]pyrazine-1,6-dione]	21.1
Cc1ccnc2ncn(Cc3nn([C@H]4C[C@@](F)(c5ccc(C(F)(F)F)cc5)C4)c(=O)o3)c(=O)c12 [compound 99, 3-[3-fluoro-3-[4-(trifluoromethyl)phenyl]cyclobutyl]-5-[(5-methyl-4-oxo-pyrido[2,3-d]pyrimidin-3 yl)methyl]-1,3,4-oxadiazol-2-one]	57.3
Cc1ccnc2ncn(Cc3nn(C[C@H](F)c4ccc(OC(F)F)cc4)c(=O)o3)c(=O)c12 (racemic) [compound 80, 5-[(5-methyl-4-oxo-pyrido[2,3-d]pyrimidin-3-yl)methyl]-3-[rac-(2R)-2-[4-(difluoromethoxy)phenyl]-2-fluoro-ethyl]-1,3,4-oxadiazol-2-one]	11.9
Cn1cnc2ncn(Cc3nn([C@H]4C[C@H](c5ccc(OC(F)F)cc5)C4)c(=O)o3)c(=O)c21 [compound 103, 3-[3-[(trans)-4-(difluoromethoxy)phenyl]cyclobutyl]-5-[(7-methyl-6-oxo-purin-1-yl)methyl]-1,3,4-oxadiazol-2-one]	26
Cn1cnc2ncn(Cc3nn(CCc4ccccc4)c(=O)o3)c(=O)c21 [compound 4, 5-((7-methyl-6-oxo-6H-purin-1(7H)-yl)methyl)-3-phenethyl-1,3,4-oxadiazol-2(3H)-one]	1060
Cn1cnc2cnn(Cc3nn(CCc4ccc(Cl)cc4)c(=O)o3)c(=O)c21 [compound 35, 3-[2-(4-chlorophenyl)ethyl]-5-[(3-methyl-4-oxo-imidazo[4,5-d]pyridazin-5-yl)methyl]-1,3,4-oxadiazol-2-one]	96
Cn1cnc2ncn(Cc3nn(C[C@@H]4CCc5cc(Cl)ccc54)c(=O)o3)c(=O)c21 [compound 49, (R)-3-((5-chloro-2,3-dihydro-1H-inden-1-yl)methyl)-5-((7-methyl-6-oxo-6,7-dihydro-1H-purin-1-yl)methyl)-1,3,4-oxadiazol-2(3H)-one]	61
Cn1cnc2ncn(Cc3nn(CCc4ccc(C#N)cc4)c(=O)o3)c(=O)c21 [compound 5, 4-(2-(5-((7-methyl-6-oxo-6H-purin-1(7H)-yl)methyl)-2-oxo-1,3,4-oxadiazol-3(2H)-yl)ethyl)benzonitrile]	1170
Cn1cnc2ncn(Cc3nn(CCc4ccc(Cl)cc4)c(=O)o3)c(=O)c21 [compound 1, 3-[2-(4-chlorophenyl)ethyl]-5-[(7-methyl-6-oxo-purin-1-yl)methyl]-1,3,4-oxadiazol-2-one]	95
Cn1cnc2ncn(Cc3nn(C[C@@H](F)c4ccc(Cl)cc4)c(=O)o3)c(=O)c21 [compound 15, (S)-3-(2-(4-chlorophenyl)-2-fluoroethyl)-5-((7-methyl-6-oxo-6H-purin-1(7H)-yl)methyl)-1,3,4-oxadiazol-2(3H)-one]	3830
Cc1ccnc2ncn(Cc3nn([C@H]4C[C@H](c5ccc(C#N)cc5)C4)c(=O)o3)c(=O)c12 [compound 79, 4-[3-[5-[(5-methyl-4-oxo-pyrido[2,3-d]pyrimidin-3-yl)methyl]-2-oxo-1,3,4-oxadiazol-3-yl]cyclobutyl]benzonitrile]	2.58
Cn1cnc2c(C#N)nn(Cc3nc(CCc4ccc(Cl)cc4)no3)c2c1=O [compound 30, 1-[[3-[2-(4-chlorophenyl)ethyl]-1,2,4-oxadiazol-5-yl]methyl]-6-methyl-7-oxo-pyrazolo[4,3-d]pyrimidine-3-carbonitrile]	26.6
C[C@H](Cn1nc(Cn2cnc3ncn(C)c3c2=O)oc1=O)c1ccc(Cl)cc1 [compound 19, (S)-3-(2-(4-chlorophenyl)propyl)-5-((7-methyl-6-oxo-6H-purin-1(7H)-yl)methyl)-1,3,4-oxadiazol-2(3H)-one]	34
Cn1cnc2ncn(Cc3nn(CCc4ccc5ccc(C#N)cc5c4)c(=O)o3)c(=O)c21 [compound 36, 7-[2-[5-[(7-methyl-6-oxo-purin-1-yl)methyl]-2-oxo-1,3,4-oxadiazol-3-yl]ethyl]naphthalene-2-carbonitrile]	120

SMILES	IC50 [nM]
Cn1cnc2ncn(Cc3nn(CCc4ccc(OC(F)(F)F)cc4)c(=O)o3)c(=O)c21 [compound 10, 5-((7-methyl-6-oxo-6H-purin-1(7H)-yl)methyl)-3-(4-(trifluoromethoxy)phenethyl)-1,3,4-oxadiazol-2(3H)-one]	86
Cc1ccnc2ncn(Cc3nn([C@H]4C[C@](F)(c5ccc(C#N)cc5)C4)c(=O)o3)c(=O)c12 [compound 77, 4-[1-fluoro-3-[5-[(5-methyl-4-oxo-pyrido[2,3-d]pyrimidin-3-yl)methyl]-2-oxo-1,3,4-oxadiazol-3-yl]cyclobutyl] benzonitrile]	21.4
Cc1ccnc2ncn(Cc3nn([C@H]4C[C@H](c5ccc(F)cc5)C4)c(=O)o3)c(=O)c12 [compound 88, 3-[3-(4-fluorophenyl)cyclobutyl]-5-[(5-methyl-4-oxo-pyrido[2,3-d]pyrimidin-3-yl)methyl]-1,3,4-oxadiazol-2-one]	5.76
Cc1cc(CCn2nc(Cn3cnc4ncn(C)c4c3=O)oc2=O)ccc1Cl [compound 39, 3-(4-chloro-3-methylphenethyl)-5-((7-methyl-6-oxo-6H-purin-1(7H)-yl)methyl)-1,3,4-oxadiazol-2(3H)-one]	113
Cn1cnc2ncn(Cc3nn(CCCOc4cccc(F)c4)c(=O)o3)c(=O)c21 [compound 74, 3-[3-(3-fluorophenoxy)propyl]-5-[(7-methyl-6-oxo-purin-1-yl)methyl]-1,3,4-oxadiazol-2-one]	77.5
Cc1ccnc2ncn(Cc3nn([C@H]4C[C@](F)(c5ccc(F)cc5)C4)c(=O)o3)c(=O)c12 [compound 96, 3-[3-fluoro-3-(4-fluorophenyl)cyclobutyl]-5-[(5-methyl-4-oxo-pyrido[2,3-d]pyrimidin-3-yl)methyl]-1,3,4-oxadiazol-2-one]	18
Cc1cc(C#N)nc2ncn(Cc3nn([C@H]4C[C@H](c5ccc(Cl)cc5)C4)c(=O)o3)c(=O)c12 [compound 93, trans-3-[[4-[3-(4-chlorophenyl)cyclobutyl]-5-oxo-1,3,4-oxadiazol-2-yl]methyl]-5-methyl-4-oxo-pyrido[2,3-d]pyrimidine-7-carbonitrile]	4.84
Cn1cnc2ncn(Cc3nn([C@@H]4CC[C@@H](c5cccc(Cl)c5)C4)c(=O)o3)c(=O)c21 (racemic) [compound 101, 5-[(7-methyl-6-oxo-purin-1-yl)methyl]-3-[rac-(1R,3R)-3-(3-chlorophenyl)cyclopentyl]-1,3,4-oxadiazol-2-one]	36.1
Cn1cnc2cnn(Cc3nn([C@H]4C[C@H](c5ccc(Cl)cc5)C4)c(=O)o3)c(=O)c21 [compound 89, 3-[3-(4-chlorophenyl)cyclobutyl]-5-[(3-methyl-4-oxo-imidazo[4,5-d]pyridazin-5-yl)methyl]-1,3,4-oxadiazol-2-one]	45.7
Cn1cnc2ncn(Cc3nn([C@H]4C[C@](F)(c5ccc(Cl)cc5)C4)c(=O)o3)c(=O)c21 [compound 105, trans-3-[3-(4-chlorophenyl)-3-fluoro-cyclobutyl]-5-[(7-methyl-6-oxo-purin-1-yl)methyl]-1,3,4-oxadiazol-2-one]	64
Cc1cc(C#N)nc2ncn(Cc3nn(CCc4ccc(Cl)cc4)c(=O)o3)c(=O)c12 [compound 28, 3-((4-(4-chlorophenethyl)-5-oxo-4,5-dihydro-1,3,4-oxadiazol-2-yl)methyl)-5-methyl-4-oxo-3,4-dihydropyrido[2,3-d]pyrimidine-7-carbonitrile]	9
O=c1c2cccnc2ncn1Cc1nn(C[C@H](F)c2ccc(OC(F)F)cc2)c(=O)o1 (racemic) [compound 81, 5-[(4-oxopyrido[2,3-d]pyrimidin-3-yl)methyl]-3-[rac-(2R)-2-[4-(difluoromethoxy)phenyl]-2-fluoro-ethyl]-1,3,4-oxadiazol-2-one]	50
Cn1cnc2ncn(Cc3nn([C@H]4C[C@H](c5cccc(Cl)c5)C4)c(=O)o3)c(=O)c21 [compound 53, 3-[3-(3-chlorophenyl)cyclobutyl]-5-[(7-methyl-6-oxo-purin-1-yl)methyl]-1,3,4-oxadiazol-2-one]	44
Cc1cnnc2ncn(Cc3nn(CCc4ccc(Cl)cc4)c(=O)o3)c(=O)c12 [compound 27, 3-(4-chlorophenethyl)-5-((4-methyl-5-oxopyridazino[3,4-d]pyrimidin-6(5H)-yl)methyl)-1,3,4-oxadiazol-2(3H)-one]	49
Cn1c(=O)ccc2ncn(Cc3nn(C[C@H](F)c4ccc(Cl)cc4)c(=O)o3)c(=O)c21 (racemic) [compound 87, 5-methyl-3-[[5-oxo-4-[rac-(2R)-2-(4-chlorophenyl)-2-fluoro-ethyl]-1,3,4-oxadiazol-2-yl]methyl]pyrido[3,2-d]pyrimidine-4,6-dione]	43.8
